From patent US6914045B2, “Glycopeptide antibiotics” (Wyeth Holdings Corporation, priority 2001, dated 2005)
Values after ≈ are worked out from the molar mass of the structure shown.

Columns and labels:
Assay in all cases: in vitro antibacterial evaluation, MIC by broth dilution
Assay type in all cases: cell-based
[1] = test system: Escherichia coli; conditions: 18 hours at 35° C.
[2] = test system: Staphylococcus sp.; conditions: broth dilution, 18 hours at 35° C.
Outline: (§1)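 Test organisms, which included recent clinical isolates resistant to methicillin, penicillin and/or vancomycin, were inoculated at 5×10^5 CFU/mL into Muller-Hinton II […] containing antibiotic at 64-0.06 μg/mL. Minimum inhibitory concentrations were then read as the lowest level inhibiting growth.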

[3] = test system: Enterococcus sp.; conditions: broth dilution, 18 hours at 35° C.
Outline: as §1

[4] = test system: Streptococcus sp.; conditions: broth dilution, 18 hours at 35° C.
Outline: as §1

MIC Escherichia coli (ATCC 25922) [1]: >64 µg/mL
MIC Escherichia coli (GC 4559) [1]: >64 µg/mL
MIC Escherichia coli (GC 4560) [1]: 64 µg/mL (≈ 44 µM)
MIC Coagulase Negative Staphylococcus (GC 4547) [2]: 64 µg/mL (≈ 44 µM)
MIC Coagulase Negative Staphylococcus (GC 4548) [2]: 32 µg/mL (≈ 22 µM)
MIC Coagulase Negative Staphylococcus (GC 4549) [2]: 32 µg/mL (≈ 22 µM)
MIC Coagulase Negative Staphylococcus (GC 4551) [2]: 64 µg/mL (≈ 44 µM)
MIC Coagulase Negative Staphylococcus (GC 6257) [2]: 32 µg/mL (≈ 22 µM)
MIC Staphylococcus aureus (ATCC 29213) [2]: 64 µg/mL (≈ 44 µM)
MIC Staphylococcus aureus (GC 1131) [2]: 64 µg/mL (≈ 44 µM)
MIC Staphylococcus aureus (GC 3051) [2]: 64 µg/mL (≈ 44 µM)
MIC Staphylococcus aureus (GC 3053) [2]: 64 µg/mL (≈ 44 µM)
MIC Staphylococcus aureus (GC 4541) [2]: 64 µg/mL (≈ 44 µM)
MIC Staphylococcus aureus (GC 4542) [2]: 64 µg/mL (≈ 44 µM)
MIC Staphylococcus aureus (GC 4544) [2]: 64 µg/mL (≈ 44 µM)
MIC Staphylococcus aureus (GC 4545) [2]: 64 µg/mL (≈ 44 µM)
MIC Staphylococcus aureus-SMITH (GC 4543) [2]: 64 µg/mL (≈ 44 µM)
MIC Staphylococcus aureus (ATCC 29213) ([2]; strain ATCC 29213): 64 µg/mL (≈ 44 µM)
MIC Staphylococcus aureus (GC 1131) ([2]; strain GC 1131): 64 µg/mL (≈ 44 µM)
MIC Staphylococcus aureus (GC 3051) ([2]; strain GC 3051): 64 µg/mL (≈ 44 µM)
MIC Staphylococcus aureus (GC 3053) ([2]; strain GC 3053): 64 µg/mL (≈ 44 µM)
MIC Staphylococcus aureus (GC 4541) ([2]; strain GC 4541): 64 µg/mL (≈ 44 µM)
MIC Staphylococcus aureus (GC 4542) ([2]; strain GC 4542): 64 µg/mL (≈ 44 µM)
MIC Staphylococcus aureus-SMITH (GC 4543) ([2]; strain GC 4543): 64 µg/mL (≈ 44 µM)
MIC Staphylococcus aureus (GC 4544) ([2]; strain GC 4544): 64 µg/mL (≈ 44 µM)
MIC Staphylococcus aureus (GC 4545) ([2]; strain GC 4545): 64 µg/mL (≈ 44 µM)
MIC Coagulase Negative Staphylococcus (GC 4547) ([2]; strain GC 4547): 64 µg/mL (≈ 44 µM)
MIC Coagulase Negative Staphylococcus (GC 4548) ([2]; strain GC 4548): 32 µg/mL (≈ 22 µM)
MIC Coagulase Negative Staphylococcus (GC 4549) ([2]; strain GC 4549): 32 µg/mL (≈ 22 µM)
MIC Coagulase Negative Staphylococcus (GC 4551) ([2]; strain GC 4551): 64 µg/mL (≈ 44 µM)
MIC Coagulase Negative Staphylococcus (GC 6257) ([2]; strain GC 6257): 32 µg/mL (≈ 22 µM)
MIC Enterococcus avium (GC 4558) [3]: 32 µg/mL (≈ 22 µM)
MIC Enterococcus faecalis (ATCC 29212) [3]: >64 µg/mL
MIC Enterococcus faecalis (GC 2242) [3]: 64 µg/mL (≈ 44 µM)
MIC Enterococcus faecalis (GC 2691) [3]: >64 µg/mL
MIC Enterococcus faecalis (GC 3059) [3]: >64 µg/mL
MIC Enterococcus faecalis (GC 4552) [3]: >64 µg/mL
MIC Enterococcus faecalis (GC 4553) [3]: 64 µg/mL (≈ 44 µM)
MIC Enterococcus faecalis (GC 4554) [3]: >64 µg/mL
MIC Enterococcus faecalis (GC 6189) [3]: 64 µg/mL (≈ 44 µM)
MIC Enterococcus faecium (GC 2243) [3]: 64 µg/mL (≈ 44 µM)
MIC Enterococcus faecium (GC 4556) [3]: >64 µg/mL
MIC Enterococcus faecium (GC 4557) [3]: 32 µg/mL (≈ 22 µM)
MIC Enterococcus faecalis (ATCC 29212) ([3]; strain ATCC 29212): >64 µg/mL
MIC Enterococcus faecium (GC 2243) ([3]; strain GC 2243): 64 µg/mL (≈ 44 µM)
MIC Enterococcus faecalis (GC 4552) ([3]; strain GC 4552): >64 µg/mL
MIC Enterococcus faecalis (GC 4553) ([3]; strain GC 4553): 64 µg/mL (≈ 44 µM)
MIC Enterococcus faecalis (GC 4554) ([3]; strain GC 4554): >64 µg/mL
MIC Enterococcus faecium (GC 4556) ([3]; strain GC 4556): >64 µg/mL
MIC Enterococcus faecium (GC 4557) ([3]; strain GC 4557): 32 µg/mL (≈ 22 µM)
MIC Enterococcus avium (GC 4558) ([3]; strain GC 4558): 32 µg/mL (≈ 22 µM)
MIC Enterococcus faecalis (GC 6189) ([3]; strain GC 6189): 64 µg/mL (≈ 44 µM)
MIC Enterococcus faecalis (GC 2242) ([3]; inoculum 5×10^5 CFU/mL, strain GC 2242): 64 µg/mL (≈ 44 µM)
MIC Enterococcus faecalis (GC 2691) ([3]; inoculum 5×10^5 CFU/mL, strain GC 2691): >64 µg/mL
MIC Enterococcus faecalis (GC 3059) ([3]; inoculum 5×10^5 CFU/mL, strain GC 3059): >64 µg/mL
MIC Streptococcus agalactiae (GC 4564) [4]: 32 µg/mL (≈ 22 µM)
MIC Streptococcus pneumoniae (ATCC 6301) [4]: 32 µg/mL (≈ 22 µM)
MIC Streptococcus pneumoniae (GC 1894) [4]: 8 µg/mL (≈ 5.5 µM)
MIC Streptococcus pneumoniae (GC 4565) [4]: 16 µg/mL (≈ 11 µM)
MIC Streptococcus pyogenes (GC 4563) [4]: 32 µg/mL (≈ 22 µM)
MIC Streptococcus pneumoniae (ATCC 6301) ([4]; inoculum 5×10^5 CFU/mL, strain ATCC 6301): 32 µg/mL (≈ 22 µM)
MIC Streptococcus pneumoniae (GC 1894) ([4]; inoculum 5×10^5 CFU/mL, strain GC 1894): 8 µg/mL (≈ 5.5 µM)
MIC Streptococcus pyogenes (GC 4563) ([4]; inoculum 5×10^5 CFU/mL, strain GC 4563): 32 µg/mL (≈ 22 µM)
MIC Streptococcus agalactiae (GC 4564) ([4]; inoculum 5×10^5 CFU/mL, strain GC 4564): 32 µg/mL (≈ 22 µM)
MIC Streptococcus pneumoniae (GC 4565) ([4]; inoculum 5×10^5 CFU/mL, strain GC 4565): 16 µg/mL (≈ 11 µM)
Compound: CC(c1ccccc1)C1NC(=O)CNC(=O)C(CO)NC(=O)C(C(O)C2CNC(=N)N2C2OC(CO)C(O)C(O)C2O)NC(=O)C(C(O)C2CNC(=N)N2)NC(=O)C(Cc2ccc(OC3OC(CO)C(OC4OC(COCC=Cc5ccc(N(C)C)cc5)C(O)C(O)C4O)C(O)C3O)cc2)NC1=O (stereo not shown) [Example 243]
MIC Staphylococcus haemolyticus (GC 4546) [2]: 64 µg/mL (≈ 44 µM)
MIC Staphylococcus haemolyticus (GC 4546) ([2]; strain GC 4546): 64 µg/mL (≈ 44 µM)
